Patent US11904038B2 (INDUSTRY-ACADEMIC COOPERATION FOUNDATION, YONSEI UNIVERSITY, priority 2017, dated 2024)

Assays:
[1] = tested on: β-catenin; experiment: Western blot analysis of β-catenin; assay type: cell-based, human; settings: phellandrene 20 μM, protein, (B) of FIG. 5
Method: (§1) Protein quantification was performed by Bradford assay.
(§2) 40 μg of the protein was electrophoresed on 10% SDS polyacrylamide gel and then transferred to nitrocellulose membranes. The protein was allowed to react with each of PKA Cα, β-catenin, β-actin, and GAPDH antibody (Cell Signaling Technology, Danvers, MA, USA). Each protein's signal was visualized with a chemiluminescent detection system (Amersham), and then the band's thickness was quantified using the Quantity One Analysis Software (Bio-Rad Laboratories).

[2] = tested on: WEHI-3 murine leukemia cells; settings: in vitro, Lin et al. 2015; cited from earlier work
[3] = tested on: VEGF; experiment: human VEGF ELISA of culture solutions; assay type: cell-based; settings: phellandrene 20 μM, 24 hours, vs DMSO, (A) of FIG. 3
Method: (§3) DMSO was used as a negative control group. The phellandrene-treated culture solutions were collected after 24 hours, and experiments were conducted using human VEGF ELISA Kit (Enzo Life Sciences, NY, USA), human IGF-1 ELISA kit (Enzo Life Sciences, NY, USA), and cAMP complete ELISA kit (Enzo Life Sciences, NY, USA), respectively, according to the manufacturers' protocol.

[4] = tested on: Cyc-D; experiment: RT-PCR mRNA expression of Cyc-D; assay type: cell-based, human; settings: phellandrene 20 μM, 24 hours, FIG. 6
Method: (§4) 24 hours after the treatment, the cells were collected and total RNA was extracted with Trizol Reagent (Gibco BRL, USA). The total RNA was quantified by absorbance measurement at 260 nm.
(§5) After isolation of RNA, cDNA was synthesized by performing reverse transcription using oligo dT primers and SuperScript reverse transcriptase (GIBCOBRL, Gaithersburg, MD, USA). PCR was performed using, as a template, cDNA obtained through reverse transcription and using, as primers, 5′ and 3′ flanking sequences of the gene's cDNA to be amplified. Here, required primers were obtained by making a request for synthesis with a company specializing in primer manufacturing (BIONEER CORPORATION, Korea) and used. To a mixture obtained by mixing of 5 μl of 10× reaction buffer [100 mM KCL, 20 mM Tris-HCl (pH 8.0), 2.5 mM MgCl2], 4 μl of 10 mM dNTP, and 1 μl each of 0.2 μM sense and antisense primers, were added 2 μl of the completed cDNA reaction mixture and 2.5 unit of Taq polymerase (Takara, Japan). Then, the volume was adjusted with 50 μl of distilled water, and PCR was performed using a PCR instrument. PCR conditions were set to 94° C. for 4 minutes, 94° C. (30 seconds), 30 cycles of [52° C. (30 seconds), 72° C. (45 seconds)], and 72° C. for 10 minutes.

[5] = tested on: cAMP; experiment: cAMP complete ELISA; assay type: cell-based, human; settings: phellandrene 20 μM, 24 hours, vs DMSO, FIG. 4
Method: as §3

[6] = tested on: PKA Cα; experiment: Western blot analysis of PKA Cα; assay type: cell-based, human; settings: phellandrene 20 μM, protein, (A) of FIG. 5
Method: as §1, §2

[7] = tested on: VEGF; experiment: RT-PCR mRNA expression of VEGF; assay type: cell-based, human; settings: phellandrene 20 μM, 24 hours, FIG. 6
Method: as §4, §5

[8] = tested on: LEF; experiment: RT-PCR mRNA expression of LEF; assay type: cell-based, human; settings: phellandrene 20 μM, 24 hours, FIG. 6
Method: as §4, §5

[9] = tested on: human hair dermal papilla cells; experiment: MTT assay: cell viability and proliferation in human hair dermal papilla cells; settings: FIG. 2
Method: Human hair dermal papilla cells were purchased from PromoCell GmbH (Heidelberg, Germany). The human hair dermal papilla cells were cultured in an incubator at 37° C., 5% CO2 using HFDPC medium (PromoCell, Germany) with fetal bovine serum (FBS) and Dulbecco's modified Eagle's medium (DMEM; Gibco BRL, Gaithersburg, MD, USA). Due to the nature of the cells, cells at passages 2 to 5 were used for all experiments.
The human hair dermal papilla cells were dispensed into 24-well plates to 1×10^5 cells/well, and then cultured for 24 hours in an incubator at 37° C., 5% CO2 so that the cells are stabilized. Treatment with samples at respective concentrations (0, 10, 20, 50, 100, 200, 400 μg/ml) was performed and culture was performed for 24 hours. Then, treatment with 100 ul of 3-(4,5-dimethylthiazol-2-yl)-2,5-diphenyltetrazolium bromide (MTT; Sigma Aldrich, St. Louis, USA) reagent at a concentration of 200 mg/ml was performed and culture was performed again for 4 hours. After removing the medium, the precipitate (formazan) was dissolved in DMSO and the absorbance was measured at a wavelength of 540 nm. A proliferation rate thereof was evaluated based on the absorbance of a control group containing only DMSO.
The group containing only DMSO was set as a control group. […] Then, culture was performed for 24 hours, and cell viability was measured through an MTT assay.

[10] = tested on: IGF-1; experiment: human IGF-1 ELISA of culture solutions; assay type: cell-based; settings: phellandrene 20 μM, 24 hours, vs DMSO, (B) of FIG. 3
Method: as §3

[11] = tested on: neutrophil migration and mast cell stabilization; settings: Siqueira et al. 2016; cited from earlier work
[12] = tested on: IGF-1; experiment: RT-PCR mRNA expression of IGF-1; assay type: cell-based, human; settings: phellandrene 20 μM, 24 hours, FIG. 6
Method: as §4, §5

In the case of phellandrene, the “increase in expression of β-catenin in the cell nucleus” value [1] is given as 30%, the “known physiological function: apoptosis in leukemia cells” value [2] is given as “induce apoptosis in leukemia cells” and the “increase in concentration of VEGF” value [3] is given as 27%. For the same substance, the “increase in mRNA expression of Cyc-D” value [4] was 250%, the “increase in cAMP concentration” value [5] was 30% and the “increase in expression of PKA Cα” value [6] was 42%. For the same substance, the “increase in mRNA expression of VEGF” value [7] was 247%, the “increase in mRNA expression of LEF” value [8] was 348% and the proliferation rate increase ([9]; phellandrene 10 μM) was 10.8%. For the same substance, the proliferation rate increase ([9]; phellandrene 20 μM) was 24%, the proliferation rate increase ([9]; phellandrene 50 μM) was 18% and the “increase in concentration of IGF-1” value [10] was 18%. The “known physiological function: anti-inflammatory” value [11] was “serve as an anti-inflammatory agent” and the “increase in mRNA expression of IGF” value [12] was 217%.
